{"source": "paper PMC9446078", "about": "(Frontiers in Endocrinology, 2022)", "key": {"red blood cells": {"system": "red blood cells", "assay": "Inhibition of sorbitol formation in erythrocytes", "type": "cell-based, human", "conditions": "at IC50 concentration; compared with glucose-induced sorbitol levels (30 mM glucose, 3 h)", "protocol": "The method in brief is discussed below. Five milliliters of blood sample was obtained from a healthy volunteer on overnight fasting in heparinized tubes. Red blood cells were separated by centrifugation and washed three times with isotonic saline at 4°C. The washed RBC were suspended in Kreb’s ringer bicarbonate buffer, pH 7.4 (preequilibrated with 5% CO2), and incubated at 37°C in the presence of 5% CO2 for 3 h under normal (3.0 mM) and high glucose (30 mM) conditions. […] At the end of the incubation period, RBC was homogenized in nine volumes of 0.8 M perchloric acid. The homogenate was centrifuged at 5,000 × g at 4°C for 10 min, and the pH of the supernatant was adjusted to 3.5 with 0.5 M potassium carbonate. The sorbitol content of the supernatant was measured by fluorometric method as described previously ([14]) using a spectrofluorometer (Jasco-FP-6500)."}, "Hanford miniature swine": {"system": "Hanford miniature swine", "assay": "12-week dermal toxicity study in miniature swine", "type": "in vivo", "protocol": "A total of 40 Hanford miniature swine (20 male and 20 female) divided into four treatment groups were used for this study. A 12-week topical application of Galnobax 20% was carried out in the miniature swine wound healing model with twice-daily dosing. Six wounds (10 cm^2 each) of partial thickness were created on the dorsal region of all animals. Four wounds of each animal received twice-daily topical doses of either the vehicle or Galnobax gel, and the remaining two sites served as untreated comparative control wounds. Each group has four male and female miniature swine for the assessments and one each for the recovery period as given in Table 1 . Safety parameters in terms of ECG, clinical pathology, wound site evaluation, and toxicokinetics were performed during the study."}, "bovine serum albumin": {"system": "bovine serum albumin", "assay": "Inhibition of advanced glycation end products (fluorometric, glucose + bovine serum albumin)", "type": "biochemical", "conditions": "control mean 7.5", "protocol": "Fluorescence was measured at the excitation wavelength of 360 nm and the emission wavelength of 440 nm. Afterwards, the samples were cooled to room temperature."}, "[1]": {"system": "HaCaT (human keratinocytes)", "assay": "Scratch assay, keratinocyte migration under high glucose", "type": "cell-based", "protocol": "(§1) High blood glucose levels hamper the migration of human fibroblasts, endothelial cells, and keratinocytes that impair wound healing ([16]–[20]). […] The detailed protocol and cytotoxicity results are provided in the Supplementary File. An actively growing culture of HFF-1 (human dermal fibroblasts), Ea.hy926 (human endothelial cells), and HaCaT (human keratinocytes) cell lines in Dulbecco’s modified Eagle’s medium containing 25 mM glucose supplemented with 10% fetal bovine serum was prepared. The cells were counted through a hemocytometer and were seeded at a density of 0.08 × 10^6 (HFF-1), 0.1 × 10^6 (Ea.hy926), and 0.2 × 10^6 (HaCaT Cells) cells/well/ml of culture medium. The plates were incubated overnight followed by serum starvation for 24 h. Scratch wounds were made in a confluent monolayer by making a straight scratch in the center of the well using a sterile 200-µl pipette microtip. […] The kinetics of migration of the cells in the wound was recorded by phase-contrast microscopy. The experiment was carried out in duplicate cells for each concentration."}, "[2]": {"system": "HFF-1 (human dermal fibroblasts)", "assay": "Scratch assay, fibroblast migration under high glucose", "type": "cell-based", "protocol": "as §1"}, "[3]": {"parameters": "method as in PMID 2879662, PMID 7957532, PMID 6135794", "conditions": "approved (intravenous) dose; cited from earlier work"}, "[4]": {"assay": "MTT cytotoxicity in HFF-1", "type": "cell-based, human", "conditions": "human, HFF-1 cells, HFF-1, 48 h, read-out: % Cytotoxicity w.r.t. untreated cells", "protocol": "(§2) 1. HaCaT, HFF-1 and Ea.hy926 cells were counted and plated in 96 well plates at the density corresponding to 5 X 10^3 cells/well/180 μl of cell growth medium.\n(§3) 2. The above cells were then incubated overnight under growth conditions of 37°C, 95 % Humidity, 5 % CO2.so as to allow the cell recovery and exponential growth.\n(§4) 3. Following overnight incubation, the above cells were serum starved in DMEM (containing 25 mM glucose) supplemented with […] for 24 h.\n(§5) 5. The Ea.hy926 cells were then incubated for 24 h and HaCaT and HFF-1 cells were incubated for 48 h in CO2 incubator at 37 °C, 5 % CO2 and 95 % humidity.\n(§6) 6. Following incubation, the plates were taken out and 20 μl of 5 mg/ml of MTT 3-(4,5-dimethythiazol-2-yl)-2,5-diphenyl tetrazolium bromide solution was added to all the wells followed by additional incubation for 3 h at 37 °C. The supernatant was aspirated and 150 μl of DMSO was added to each well to dissolve formazan crystals. The absorbance of each well was then read at 540 nm using Synergy HT micro plate reader.\n(§7) 7. The percentage cytotoxicity at each tested concentration was calculated using the following formula:\n(§8) % Cytotoxicity = (1-X/R)*100"}, "HFF-1 cells": {"system": "HFF-1 cells", "assay": "MTT cytotoxicity in HFF-1", "type": "cell-based, human", "conditions": "HFF-1, all tested concentrations (0.01 to 1000 μM); <30% = non-cytotoxic", "protocol": "as §2, §3, §4, §5, §6, §7, §8"}, "[5]": {"assay": "MTT cytotoxicity in Ea.hy926", "type": "cell-based, human", "conditions": "human, Ea.hy926 cells, Ea.hy926, 24 h, read-out: % Cytotoxicity w.r.t. untreated cells", "protocol": "as §2, §3, §4, §5, §6, §7, §8"}, "Ea.hy926 cells": {"system": "Ea.hy926 cells", "assay": "MTT cytotoxicity in Ea.hy926", "type": "cell-based, human", "conditions": "Ea.hy926, all tested concentrations (0.01 to 1000 μM); <30% = non-cytotoxic", "protocol": "as §2, §3, §4, §5, §6, §7, §8"}, "[6]": {"conditions": "1 and 10 µM, compared with control, high glucose"}, "[7]": {"conditions": "100 and 500 µM compared with 1 and 10 µM"}}, "note": "Structures can show the parent of a compound that is named as a salt.", "data": [{"smiles": "COC(=O)CCc1ccc(OCC(O)CNC(C)C)cc1", "note": "(centres unmarked) [Esmolol hydrochloride]", "values": [{"measurement": "inhibition of sorbitol formation in red blood cells", "setting": "red blood cells", "result": 59, "unit": "%"}, {"measurement": "local reactions at the injection sites", "setting": "Hanford miniature swine; subcutaneously administered esmolol (30 mg/kg once or twice daily) plus topical Galnobax", "result": "moderate to severe local reactions"}, {"measurement": "ovary weights", "setting": "Hanford miniature swine; subcutaneously administered esmolol plus topical Galnobax, no histopathologic changes", "result": "reduction in absolute and relative ovary weights"}, {"measurement": "Fluorescence measurement, mean", "setting": "bovine serum albumin; 500 µM", "result": 5}, {"measurement": "Fluorescence measurement, mean", "setting": "bovine serum albumin; 1 mM", "result": 2.6}, {"measurement": "Fluorescence measurement, mean", "setting": "bovine serum albumin; 1 mM, listed as esmolol", "result": "2.6 ± 1.7"}, {"measurement": "migration of keratinocytes", "setting": "[1]; [6]", "result": "enhanced the migration"}, {"measurement": "migration of keratinocytes", "setting": "[1]; [7]", "result": "lower migration"}, {"measurement": "migration of fibroblasts", "setting": "[2]; [6]", "result": "enhanced the migration"}, {"measurement": "migration of fibroblasts", "setting": "[2]; [7]", "result": "lower migration"}, {"measurement": "Cmax of the approved human dose", "setting": "[3]", "result": "868–1,470 ng/ml"}, {"measurement": "cytotoxicity at 48 h, 0.01 µM", "setting": "[4]; 0.01 μM", "result": -21.6, "unit": "%"}, {"measurement": "cytotoxicity at 48 h, 0.1 µM", "setting": "[4]; 0.1 μM", "result": -10.7, "unit": "%"}, {"measurement": "cytotoxicity at 48 h, 1 µM", "setting": "[4]; 1 μM", "result": -8.29, "unit": "%"}, {"measurement": "cytotoxicity at 48 h, 10 µM", "setting": "[4]; 10 μM", "result": -17.1, "unit": "%"}, {"measurement": "cytotoxicity at 48 h, 50 µM", "setting": "[4]; 50 μM", "result": -21.8, "unit": "%"}, {"measurement": "cytotoxicity at 48 h, 100 µM", "setting": "[4]; 100 μM", "result": -21.9, "unit": "%"}, {"measurement": "cytotoxicity at 48 h, 500 µM", "setting": "[4]; 500 μM", "result": 14, "unit": "%"}, {"measurement": "cytotoxicity at 48 h, 1000 µM", "setting": "[4]; 1000 μM", "result": 16.6, "unit": "%"}, {"measurement": "cytotoxicity", "setting": "HFF-1 cells", "result": "non-cytotoxic"}, {"measurement": "cytotoxicity at 24 h, 0.01 µM", "setting": "[5]; 0.01 μM", "result": 5.84, "unit": "%"}, {"measurement": "cytotoxicity at 24 h, 0.1 µM", "setting": "[5]; 0.1 μM", "result": 1.73, "unit": "%"}, {"measurement": "cytotoxicity at 24 h, 1 µM", "setting": "[5]; 1 μM", "result": 11.4, "unit": "%"}, {"measurement": "cytotoxicity at 24 h, 10 µM", "setting": "[5]; 10 μM", "result": 13.8, "unit": "%"}, {"measurement": "cytotoxicity at 24 h, 50 µM", "setting": "[5]; 50 μM", "result": 3.85, "unit": "%"}, {"measurement": "cytotoxicity at 24 h, 100 µM", "setting": "[5]; 100 μM", "result": 2.79, "unit": "%"}, {"measurement": "cytotoxicity at 24 h, 500 µM", "setting": "[5]; 500 μM", "result": 17.5, "unit": "%"}, {"measurement": "cytotoxicity at 24 h, 1000 µM", "setting": "[5]; 1000 μM", "result": 12.7, "unit": "%"}, {"measurement": "cytotoxicity", "setting": "Ea.hy926 cells", "result": "non-cytotoxic"}]}]}
